Measurements from patent publication US20120053119A1, “THERAPEUTIC METHOD FOR INCREASING PANCREATIC BETA CELL MASS” (priority 2009, published 2012).

Tested on: MIN6 cells
Assay: Thapsigargin-induced apoptosis, Western immunoblot of cleaved caspase-3 and cleaved PARP
Format: cell-based
Conditions: SDF-1 10 nM with thapsigargin 1 microM, 16 h
Experimental: FIG. 6. Inhibition of apoptosis by SDF-1 in INS-1 and MIN-6 cells is reversed by knock-down of betacatenin. A. Western blot analysis of extracts from MIN6 cells that were mock treated, thapsigargin-treated (1 μM) and/or siRNA transfected (0.25 mg/ml), by using anti-serum against cleaved caspase-3 (upper panel), anti-serum against cleaved PARP (middle panel) and actin antibody (lower panel) as a loading control. B. Caspase-3 activity (fluorescence/mg proteinx105) of INS-1 or MIN6 cells mock treated, thapsigargin-treated (1 μM) and/or siRNA transfected (0.25 mg/ml). Results are presented as mean±SD for n=3 independent experiments, All values are relative to the first (leftmost) bar. […] Quantification of apoptotic cells is expressed as percent apoptotic cells relative to the total cells counted (lower left panel). […]
Thapsigargin-induced apoptosis in INS-1 or MIN6 cells For western immuoblot assay (Cell Signaling), MIN6 cells were seeded into 6 well plates then treated with 1 microM thapsigargin or DMSO control for 16 h and apoptotic activity was measured by Western immunoblotting using antisera specific for cleaved (active) caspase-3 (Cell signaling #9661) and cleaved (active) PARP (Cell signaling #9548). For caspase-3 assay, INS-1 cells or MIN-6 cells in 24-well plates were treated with 1 microM thapsigargin or DMSO for 16 hand caspase-3 activity was determined (Molecular Probes). […]

Substance: SDF-1: small, secreted 70 amino acid peptide chemokine, SEQ ID NO: 1, ligand of CXCR4
- effect on thapsigargin-increased levels of cleaved caspase-3 and PARP: inhibited
